Assay results reported in patent US6277871A, “Inhibitors of protein isoprenyl transferases” (Abbott Laboratories, priority 1999, dated 2001).

Molecular target: T1, Rat brain protein farnesyltransferase (Rattus norvegicus, UniProt Q02293+Q04631)
T1 construct: Rat brain protein farnesyltransferase activity is measured; from tissue; host or cells: rat brain
Assay: in vitro inhibition of protein farnesyltransferase (Amersham scintillation proximity assay, biotin-K Ras B fragment substrate)
Assay type: biochemical
Details: 1 × 10^-7 M; protein farnesyltransferase; compared to uninhibited control; read-out: % inhibition at 1 × 10^-7 M
Method: In addition, in vitro inhibition of protein farnesyltransferase may be measured by the following procedure. […] The enzyme is purified according to Reiss, Y., et al., Cell, 62: 81-88 (1990), hereby incorporated by reference, utilizing steps one through three. […]
The % inhibition of protein farnesyltransferase was determined for representative compounds of the invention.

T1 sequence (Q02293 whole entry, one chain of several): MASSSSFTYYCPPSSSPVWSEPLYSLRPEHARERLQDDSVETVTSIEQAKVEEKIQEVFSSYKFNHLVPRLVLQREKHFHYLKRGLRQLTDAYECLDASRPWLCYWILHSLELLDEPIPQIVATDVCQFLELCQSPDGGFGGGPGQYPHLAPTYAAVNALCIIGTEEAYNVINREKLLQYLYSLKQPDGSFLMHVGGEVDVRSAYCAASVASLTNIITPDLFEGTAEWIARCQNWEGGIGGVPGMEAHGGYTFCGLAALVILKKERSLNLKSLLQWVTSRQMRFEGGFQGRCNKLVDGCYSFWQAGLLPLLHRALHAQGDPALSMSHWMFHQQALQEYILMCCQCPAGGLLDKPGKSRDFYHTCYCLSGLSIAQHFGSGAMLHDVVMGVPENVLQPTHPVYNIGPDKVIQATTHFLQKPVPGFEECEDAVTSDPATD

| inhibition at 0.1 µM [%] | SMILES |
| --- | --- |
| 55 | CSCC[C@H](NC(=O)C1=C(c2ccccc2C)CN(CCCc2ccccc2)CC1)C(=O)O [Example 4, N-[N'-(3-phenylpropyl)-3-(2-methylphenyl)-1,2,5,6-tetrahydroisonicotinyl]methionine] |
| 43 | CSCC[C@H](NC(=O)C1=C(c2ccccc2C)CN(C(=O)C=Cc2cncs2)CC1)C(=O)O [Example 2, N-4-[1-(3-[5-thiazolyl]acryloyl)-3-(2-methylphenyl)-1,2,5,6-tetrahydroisonicotinyl]methionine] |
| 100 | CSCC[C@H](NC(=O)C1=C(c2ccccc2C)CN(C(=O)OCCCC2CCCCC2)CC1)C(=O)O [Example 1, N-4-[1-(3-cyclohexylpropyloxycarbonyl)-3-(2-methylphenyl)-1,2,5,6-tetrahydroisonicotinyl]methionine] |
| 100 | CSCC[C@H](NC(=O)C1=C(c2ccccc2C)CN(C(=O)N(Cc2ccccc2)Cc2cncs2)CC1)C(=O)O [Example 3, N-4-[1-(N'-benzyl-5-thiazolmethylaminocarbonyl)-3-(2-methylphenyl)-1,2,5,6-tetrahydroisonicotinyl]methionine] |

Same assay, conditions: read-out: % inhibition at 1 × 10^-7 M

| SMILES | inhibition at 0.1 µM [%] |
| --- | --- |
| CSCC[C@H](NC(=O)C1=C(c2ccccc2C)CN(C(=O)Cc2cccnc2)CC1)C(=O)O [Example 5, N-[N'-(3-pyridylacetyl)-3-(2-methylphenyl)-1,2,5,6-tetrahydroisonicotinyl]methionine] | 94 |
| CSCC[C@H](NC(=O)C1=C(c2ccccc2C)CN(S(=O)(=O)N(Cc2ccccc2)Cc2cncs2)CC1)C(=O)O [Example 6, N-4-[1-(N'-benzyl-5-thiazolmethylaminosulfamoyl)-3-(2-methylphenyl)-1,2,5,6-tetrahydroisonicotinyl]methionine] | 90 |
